Experimental data published in ChEMBL document CHEMBL1138983, “Design, synthesis, and evaluation of novel 6-chloro-/fluorochromone derivatives as potential topoisomerase inhibitor anticancer agents” (2006).

Columns and labels:
[1] = system: Mus musculus; assay: Effect on weight variation in Ehrlich carcinoma bearing Swiss Albino mice 9 days post dose administered ip; assay type: functional
[2] = system: Mus musculus; assay: Median survival time in Ehrlich carcinoma bearing Swiss Albino mice 9 days post dose administered ip; assay type: functional
[3] = system: Mus musculus; assay: Increase in life span in Ehrlich carcinoma bearing Swiss Albino mice 9 days post dose administered ip; assay type: functional
[4] = system: Ehrlich; assay: Cytotoxicity against Ehrlich ascites carcinoma cells at 250 ug/ml; assay type: functional, Mus musculus
[5] = system: Ehrlich; assay: Cytotoxicity against Ehrlich ascites carcinoma cells at 125 ug/ml; assay type: functional, Mus musculus
[6] = system: Ehrlich; assay: Cytotoxicity against Ehrlich ascites carcinoma cells at 500 ug/ml; assay type: functional, Mus musculus
[7] = system: Mus musculus; assay: Median survival time in Ehrlich carcinoma bearing Swiss Albino mice 9 days post dose at 3.5 mg/kg, ip; assay type: functional, organism-based; parameters: dose 3.5 mg/kg
[8] = system: Mus musculus; assay: Increase in life span in Ehrlich carcinoma bearing Swiss Albino mice 9 days post dose at 3.5 mg/kg, ip; assay type: functional, organism-based; parameters: dose 3.5 mg/kg
[9] = system: Mus musculus; assay: Effect on weight variation in Ehrlich carcinoma bearing Swiss Albino mice 9 days post dose at 3.5 mg/kg, ip; assay type: functional, organism-based; parameters: dose 3.5 mg/kg

Compound | Activity [1] | MST [2] | Activity [3] | Activity [4] | Activity [5] | Activity [6] | MST [7] | Activity [8] | Activity [9]
O=Cc1c(N2CCOCC2)oc2ccc(Cl)cc2c1=O | -16.81% | 12 days | 23.1% | 100% | 60% | 100% |  |  | 
O=Cc1c(N2CCCCC2)oc2ccc(Cl)cc2c1=O |  |  |  | 100% | 100% | 100% |  |  | 
O=Cc1c(N2CCOCC2)oc2cc(N3CCOCC3)c(F)cc2c1=O | -15.89% | 11.14 days | 16.9% | 0% | 0% | 70% |  |  | 
O=Cc1c(N2CCCC2)oc2ccc(Cl)cc2c1=O |  |  |  | 100% | 90% | 100% |  |  | 
CN1CCN(c2cc3oc(N4CCN(C)CC4)c(C=O)c(=O)c3cc2F)CC1 |  |  |  | 0% | 0% | 20% |  |  | 
CN1CCN(c2oc3ccc(Cl)cc3c(=O)c2C=O)CC1 |  |  |  | 60% | 50% | 60% |  |  | 
O=Cc1c(N2CCCCC2)oc2cc(N3CCCCC3)c(F)cc2c1=O | -9.5% | 11.6 days | 17.9% | 100% | 100% | 100% |  |  | 
CISPLATIN |  |  |  |  |  |  | 17.3 days | 75.4% | -17.3%
